Source: US20140221468A1, “Compounds that Modulate Store Operated Calcium Channels” (The Board of Trustees of the Leland Stanford Junior …, priority 2010, published 2014)

Columns and labels:
SOC [1] = assay: Fura2-AM calcium imaging in HEK293 cells; type: cell-based; details: for effect on intracellular calcium levels, post SOC activation treatment: applied after ER store depletion, at minute 510 of imaging
Method: Calcium imaging was utilized for further characterization of the compounds and analogs. Using Fura2-AM, a known ratiometric calcium indicator, SOC dependent intracellular calcium rise and lack thereof was measured after treatment of our compounds (FIG. 3A-B). […] 1 minute before treatment of Thapsigargin.
This observation was in line with the previous luciferase assays and confirmed the ability of these compounds to inhibit SOC.
LaCl, a general blocker of divalent channels, was also used as a comparison for the post treatment experiment. […] HEK293 cells were treated with DMSO (black), LaCl at 1 uM (red), AnCoA4 at 50 uM (orange), and BiochaninA at 50 uM (green) at minute 510 of the calcium imaging. The intracellular calcium levels quickly drop after LaCl treatment whereas the compound treatment had no effect on the calcium levels.imaging.

SOC [2] = assay: NFAT coupled luciferase assay (NFAT-luc) for functional inhibition of SOC; type: cell-based; details: Jurkat T cells pretreated 30 minutes, activated by thapsigargin (TG) and PMA; read-out: EC50, NFAT-luc assay dose response
Method: To evaluate the ability of these compounds to inhibit SOC, a NFAT coupled luciferase assay was utilized as a functional secondary screen (FIG. 2A). This assay allows the monitoring of the IL2 promoter dependent production of luciferase that is directly activated by SOC through dephosphorylation of NFAT in T lymphocytes. This assay requires treatment of PMA, a PKC agonist, in parallel with SOC activation. Jurkat T cells were pretreated with each of the 51 compounds for 30 minutes and then activated by treatment of thapsigargin (TG) and PMA. TG depletes the ER stores by inhibiting the SERCA pumps that are responsible for refilling these stores with calcium. This process in turn activates SOC currents.
Fifty one compounds identified in the binding assay were tested by NFAT-luc assay to evaluated their SOC inhibitory properties (top). Renilla-luc was also monitored as an internal control of viability of the cells (bottom).
To further examine the hits produced from the secondary luciferase screen, four compounds AnCoA4, AnCoA5, AnCoG4, and AnCoF6 were selected (FIGS. 2B, C, D). The Dose response curve calculated from FIG. 2B is shown in FIG. 2C with a calculated EC50 equal to 0.9 μM.

jurkat T lymphocytes = assay: qRT PCR of T and B lymphocyte activating genes in jurkat T lymphocytes; type: cell-based, human
Method: The ability of AnCoA4 to inhibit activation of jurkat T lymphocytes was investigated (FIG. 4A). As IL2 gene production was previously investigated indirectly using a luciferase assay, the production of 83 more genes was monitored using real time quantitative PCR (qRT PCR). […] Jurkat T cells were treated with DMSO and AnCoA4 30 minutes before activation with PHA. Total RNA was extracted after 4 hours. […] Cells were pretreated with AnCoA4 30 minutes before activation with PHA or thapsigargin plus PMA for various time length of activation.
The ability of the AnCoA4 alone for independent up regulation of IL2 gene was also tested and no effects were observed.

[3] = 50 uM pretreatment for 30 minutes, then PHA activation, qRT PCR

SMILES | effect on intracellular calcium levels, post SOC activation treatment (SOC [1]; 1 uM) | EC50 (SOC [2]) [nM] | SOC dependent intracellular calcium influx, pretreatment (SOC [1]; 50 uM, 1 minute before thapsigargin) | effect on intracellular calcium levels, post SOC activation treatment (SOC [1]; 50 uM) | CCL4 down regulation (jurkat T lymphocytes; [3]) [folds] | IL2 down regulation (jurkat T lymphocytes; [3]) | mRNA levels for most genes in comparison with the control sample (jurkat T lymphocytes; 84 genes, 50 uM pretreatment for 30 minutes, then PHA activation) | independent up regulation of IL2 gene by compound alone (jurkat T lymphocytes; compound alone, without activation)
[Cl][La]([Cl])[Cl] [LaCl, reference compound] | quickly drop | – | – | – | – | – | – | –
COc1cc2c(cc1-c1coc3c4c(ccc3c1=O)OC(C)(C)C=C4)OCO2 [AnCoA4] | – | 900 | significantly reduced | no effect | ~180 | about 6 folds | significantly lower | no effects
COc1ccc(-c2coc3cc(O)cc(O)c3c2=O)cc1 [BiochaninA] | – | – | – | no effect | – | – | – | –
